According to US9695155B2, “Herbicidal substituted pyrimidinyloxy benzene compounds” (E. I. DU PONT DE NEMOURS AND COMPANY, priority 2013, dated 2017):

Assays:
dayflower = test: Test F preemergence; assay type: in vivo, Commelina virginica; conditions: 21 days, scale 0 to 100
Source text: (§1) Seeds of plant species selected from bermudagrass (Cynodon dactylon), surinam grass (Brachiaria decumbens), large (Lg) crabgrass (Digitaria sanguinalis), crabgrass, naked (naked crabgrass, Digitaria nuda), foxtail, green (green foxtail, Setaria viridis), johnsongrass (Sorghum halepense), kochia (Kochia scoparia), morningglory (pitted morningglory, Ipomoea lacunosa), nutsedge, purple (purple nutsedge, Cyperus rotundus), ragweed (common ragweed, Ambrosia elatior), mustard, black (black mustard, Brassica nigra), guineagrass (Panicum maximum), dallisgrass (Paspalum dilatatum), barnyardgrass (Echinochloa crus-galli), sandbur (southern sandbur, Cenchrus echinatus), sowthistle (common sowthistle, Sonchus oleraceous), Italian ryegrass (Lolium multiflorum), signalgrass (broadleaf signalgrass, Brachiaria platyphylla), dayflower (Virginia (VA) dayflower, Commelina virginica), bluegrass (annual bluegrass, Poa annua), quackgrass (Elytrigia repens), mallow (common mallow, Malva sylvestris), buckwheat, wild (wild buckwheat, Polygonum convolvulus), leafy spurge (Euphorbia esula), chickweed (common chickweed, Stellaria media), wild poinsettia (Euphorbia heterophylla), and pigweed (Amaranthus retroflexus) were planted into a blend of loam soil and sand and treated preemergence with test chemicals formulated in a non-phytotoxic solvent mixture which included a surfactant.
(§2) Treated plants and controls were maintained in a greenhouse for 21 days, after which time all species were compared to controls and visually evaluated. Plant response ratings, summarized in Table F, are based on a scale of 0 to 100 where 0 is no effect and 100 is complete control. A dash (-) response means no test result.

[1] = test system: morningglory (pitted morningglory); test: Test F preemergence; assay type: in vivo, Ipomoea lacunosa; conditions: 21 days, scale 0 to 100
Source text: as §1, §2

sowthistle = test: Test F preemergence; assay type: in vivo, Sonchus oleraceous; conditions: 21 days, scale 0 to 100
Source text: as §1, §2

kochia [2] = test: Test F preemergence; assay type: in vivo, Kochia scoparia; conditions: 21 days, scale 0 to 100
Source text: as §1, §2

quackgrass = test: Test F preemergence; assay type: in vivo, Elytrigia repens; conditions: 21 days, scale 0 to 100
Source text: as §1, §2

wild oat = test: Test D postemergence; assay type: in vivo, Avena fatua; conditions: Avena fatua, post-emergence, scale 0 to 100 (0 no effect, 100 complete control), read-out: Plant response rating, Oat, Wild
Source text: (§3) Seeds of plant species selected from bluegrass (annual bluegrass, Poa annua), blackgrass (Alopecurus myosuroides), canarygrass (littleseed canarygrass, Phalaris minor), chickweed (common chickweed, Stellaria media), galium (catchweed bedstraw, Galium aparine), bromegrass, downy (downy bromegrass, Bromus tectorum), field poppy (Papaver rhoeas), field violet (Viola arvensis), green foxtail (Setaria viridis), deadnettle (henbit deadnettle, Lamium amplexicaule), Italian ryegrass (Lolium multiflorum), kochia (Kochia scoparia), lambsquarters (Chenopodium album), oilseed rape (Brassica napus), pigweed (Amaranthus retroflexus), chamomile (scentless chamomile, Matricaria inodora), Russian thistle (Salsola kali), speedwell (bird's-eye speedwell, Veronica persica), spring barley (Hordeum vulgare), spring wheat (Triticum aestivum), wild buckwheat (Polygonum convolvulus), wild mustard (Sinapis arvensis), wild oat (Avena fatua), wild radish (Raphanus raphanistrum), windgrass (Apera spica-venti), winter barley (Hordeum vulgare), and winter wheat (Triticum aestivum) were planted into a silt loam soil and treated preemergence with test chemicals formulated in a non-phytotoxic solvent mixture which included a surfactant.
(§4) At the same time, these species were planted in pots containing Redi-Earth® planting medium (Scotts Company, 14111 Scottslawn Road, Marysville, Ohio 43041) comprising spaghnum peat moss, vermiculite, wetting agent and starter nutrients and treated with postemergence applications of the test chemicals formulated in the same manner. Plants ranged in height from 2 to 18 cm (1- to 4-leaf stage). Treated plants and controls were maintained in a controlled growth environment for 7 to 21 days after which time all species were compared to controls and visually evaluated. Plant response ratings, summarized in Table D, are based on a scale of 0 to 100 where 0 is no effect and 100 is complete control. A dash (-) response means no test result.

lambsquarters = test: Test D postemergence; assay type: in vivo, Chenopodium album; conditions: Chenopodium album, post-emergence, scale 0 to 100 (0 no effect, 100 complete control), read-out: Plant response rating, Lambsquarters
Source text: as §3, §4

deadnettle = test: Test D preemergence; assay type: in vivo, Lamium amplexicaule; conditions: Lamium amplexicaule, pre-emergence, scale 0-100, read-out: Plant response rating, Deadnettle
Source text: as §3, §4

kochia [3] = test: Test D preemergence; assay type: in vivo, Kochia scoparia; conditions: Bassia scoparia, pre-emergence, scale 0-100, read-out: Plant response rating, Kochia
Source text: as §3, §4

canarygrass = test: Test D postemergence; assay type: in vivo, Phalaris minor; conditions: Phalaris minor, post-emergence, scale 0 to 100 (0 no effect, 100 complete control), read-out: Plant response rating, Canarygrass
Source text: as §3, §4

winter barley = test: Test D postemergence; assay type: in vivo, Hordeum vulgare; conditions: Hordeum vulgare, post-emergence, Postemergence, scale 0 to 100 (0 no effect, 100 complete control), read-out: Plant response rating, Barley, Winter
Source text: as §3, §4

spring barley = test: Test D postemergence; assay type: in vivo, Hordeum vulgare; conditions: Hordeum vulgare, post-emergence, Postemergence, scale 0 to 100 (0 no effect, 100 complete control), read-out: Plant response rating, Barley, Spring
Source text: as §3, §4

field poppy = test: Test D postemergence; assay type: in vivo, Papaver rhoeas; conditions: Papaver rhoeas, post-emergence, scale 0 to 100 (0 no effect, 100 complete control), read-out: Plant response rating, Field Poppy
Source text: as §3, §4

N#Cc1cccc(Oc2ncc(F)cn2)c1-n1cc(C(F)(F)F)cn1 [Compound 79, 3-[(5-fluoro-2-pyrimidinyl)oxy]-2-[4-(trifluoromethyl)-1H-pyrazol-1-yl]benzonitrile]
Plant response rating, Dayflower, VA (dayflower; 16 g ai/ha): 95 | Plant response rating, Dayflower, VA (dayflower; 31 g ai/ha): 98 | Plant response rating, Dayflower, VA (dayflower; 62 g ai/ha): 100 | Plant response rating, Dayflower, VA (dayflower; 125 g ai/ha): 100 | Plant response rating, Dayflower, VA (dayflower; 250 g ai/ha): 100 | Plant response rating, Morningglory ([1]; 16 g ai/ha): 98 | Plant response rating, Morningglory ([1]; 31 g ai/ha): 100 | Plant response rating, Morningglory ([1]; 62 g ai/ha): 100 | Plant response rating, Morningglory ([1]; 125 g ai/ha): 100 | Plant response rating, Morningglory ([1]; 250 g ai/ha): 100 | Plant response rating, Sowthistle (sowthistle; 16 g ai/ha): 100 | Plant response rating, Sowthistle (sowthistle; 31 g ai/ha): 100 | Plant response rating, Sowthistle (sowthistle; 62 g ai/ha): 100 | Plant response rating, Sowthistle (sowthistle; 125 g ai/ha): 100 | Plant response rating, Sowthistle (sowthistle; 250 g ai/ha): 100 | Plant response rating, Kochia (kochia [2]; 16 g ai/ha): 100 | Plant response rating, Kochia (kochia [2]; 31 g ai/ha): 100 | Plant response rating, Kochia (kochia [2]; 62 g ai/ha): 100 | Plant response rating, Kochia (kochia [2]; 125 g ai/ha): 100 | Plant response rating, Kochia (kochia [2]; 250 g ai/ha): 100 | Plant response rating, Quackgrass (quackgrass; 16 g ai/ha): 40 | Plant response rating, Quackgrass (quackgrass; 31 g ai/ha): 70 | Plant response rating, Quackgrass (quackgrass; 62 g ai/ha): 95 | Plant response rating, Quackgrass (quackgrass; 125 g ai/ha): 98 | Plant response rating, Quackgrass (quackgrass; 250 g ai/ha): 100

N#Cc1cccc(Oc2ncc(Cl)cn2)c1-n1cc(Br)cn1 [Compound 52, 2-(4-bromo-1H-pyrazol-1-yl)-3-[(5-chloro-2-pyrimidinyl)oxy]benzonitrile]
pest or weed control at 31 g/ha (wild oat; 31 g ai/ha): 20% | pest or weed control at 62 g/ha (wild oat; 62 g ai/ha): 35% | pest or weed control at 125 g/ha (wild oat; 125 g ai/ha): 30% | pest or weed control at 250 g/ha (wild oat; 250 g ai/ha): 35% | pest or weed control at 31 g/ha (lambsquarters; 31 g ai/ha): 80% | pest or weed control at 62 g/ha (lambsquarters; 62 g ai/ha): 75% | pest or weed control at 125 g/ha (lambsquarters; 125 g ai/ha): 75% | pest or weed control at 250 g/ha (lambsquarters; 250 g ai/ha): 95% | pest or weed control at 31 g/ha (deadnettle; 31 g ai/ha): 70% | pest or weed control at 62 g/ha (deadnettle; 62 g ai/ha): 75% | pest or weed control at 125 g/ha (deadnettle; 125 g ai/ha): 100% | pest or weed control at 250 g/ha (deadnettle; 250 g ai/ha): 100% | pest or weed control at 31 g/ha (kochia [3]; 31 g ai/ha): 95% | pest or weed control at 62 g/ha (kochia [3]; 62 g ai/ha): 95% | pest or weed control at 125 g/ha (kochia [3]; 125 g ai/ha): 95% | pest or weed control at 250 g/ha (kochia [3]; 250 g ai/ha): 95% | pest or weed control at 31 g/ha (canarygrass; 31 g ai/ha): 35% | pest or weed control at 62 g/ha (canarygrass; 62 g ai/ha): 35% | pest or weed control at 125 g/ha (canarygrass; 125 g ai/ha): 50% | pest or weed control at 250 g/ha (canarygrass; 250 g ai/ha): 60% | plant injury at 31 g/ha (winter barley; 31 g ai/ha): 10% | plant injury at 62 g/ha (winter barley; 62 g ai/ha): 10% | plant injury at 125 g/ha (winter barley; 125 g ai/ha): 15% | plant injury at 250 g/ha (winter barley; 250 g ai/ha): 20% | plant injury at 31 g/ha (spring barley; 31 g ai/ha): 10% | plant injury at 62 g/ha (spring barley; 62 g ai/ha): 15% | plant injury at 125 g/ha (spring barley; 125 g ai/ha): 15% | plant injury at 250 g/ha (spring barley; 250 g ai/ha): 20% | pest or weed control at 31 g/ha (field poppy; 31 g ai/ha): 60% | pest or weed control at 62 g/ha (field poppy; 62 g ai/ha): 75% | pest or weed control at 125 g/ha (field poppy; 125 g ai/ha): 80% | pest or weed control at 250 g/ha (field poppy; 250 g ai/ha): 100%

N#Cc1cccc(Oc2ncc(Cl)cn2)c1-n1cc(OC(F)F)cn1 [Compound 97]
Plant response rating, Dayflower, VA (dayflower; 16 g ai/ha): 35 | Plant response rating, Dayflower, VA (dayflower; 31 g ai/ha): 80 | Plant response rating, Dayflower, VA (dayflower; 62 g ai/ha): 98 | Plant response rating, Dayflower, VA (dayflower; 125 g ai/ha): 98 | Plant response rating, Dayflower, VA (dayflower; 250 g ai/ha): 100 | Plant response rating, Morningglory ([1]; 16 g ai/ha): 10 | Plant response rating, Morningglory ([1]; 31 g ai/ha): 60 | Plant response rating, Morningglory ([1]; 62 g ai/ha): 90 | Plant response rating, Morningglory ([1]; 125 g ai/ha): 98 | Plant response rating, Morningglory ([1]; 250 g ai/ha): 100 | Plant response rating, Sowthistle (sowthistle; 16 g ai/ha): 100 | Plant response rating, Sowthistle (sowthistle; 31 g ai/ha): 100 | Plant response rating, Sowthistle (sowthistle; 62 g ai/ha): 100 | Plant response rating, Sowthistle (sowthistle; 125 g ai/ha): 100 | Plant response rating, Sowthistle (sowthistle; 250 g ai/ha): 100 | Plant response rating, Kochia (kochia [2]; 16 g ai/ha): 100 | Plant response rating, Kochia (kochia [2]; 31 g ai/ha): 100 | Plant response rating, Kochia (kochia [2]; 62 g ai/ha): 100 | Plant response rating, Kochia (kochia [2]; 125 g ai/ha): 100 | Plant response rating, Kochia (kochia [2]; 250 g ai/ha): 100 | Plant response rating, Quackgrass (quackgrass; 16 g ai/ha): 0 | Plant response rating, Quackgrass (quackgrass; 31 g ai/ha): 35 | Plant response rating, Quackgrass (quackgrass; 62 g ai/ha): 50 | Plant response rating, Quackgrass (quackgrass; 125 g ai/ha): 95 | Plant response rating, Quackgrass (quackgrass; 250 g ai/ha): 100
